Results published in PMC11292009, “Mapping protein binding sites by photoreactive fragment pharmacophores” (Communications Chemistry, 2024).

What was measured:
Format in all cases: binding
[1] = test system: carbonic anhydrase II (CA); assay: Intact protein MS photoaffinity labeling screen, carbonic anhydrase; conditions: intact protein MS after 10 min irradiation
Experimental: (§1) Using a plate-based format with one fragment per well, each fragment was incubated with the target proteins for 15 min to allow for the formation of non-covalent interactions. […] Finally, the results were directly analyzed from the plate using intact protein mass spectrometry by observing the mass additions that correspond to successful labeling (Fig. 2c, for labeling % values see Supplementary data). The library was first characterized against three benchmark proteins like carbonic anhydrase (CA), lysozyme (Lyo), and myoglobin (Myo).

[2] = test system: T1, KRas^G12D; assay: Intact MS photoaffinity labeling screen, KRas G12D (302 nm, LCMS-TOF); conditions: for MS labeling percentage, KRas: KRas G12D, 302 nm 10 min; for KRAS-G12D: experimental hit status flag (0/1)
T1 construct: purchased GSK/GenScript
Experimental: as §1
(§2) The PhP library was screened against BRD4-BD1 and KRas^G12D as follows. […] The probe plate was placed on ice. 15 μL of protein stock solution (1 μM BRD4-BD1 (GSK/GenScript) or KRas^G12D (GSK/GenScript) in PBS buffer) was dispensed into wells containing fragments. The plate was left on ice for 15 min for incubation, then irradiated at 302 nm for 10 min, and centrifuged (1000 rpm, 1 min) to remove any bubbles. […] The deconvoluted spectra were analyzed using R Studio software.

[3] = test system: T2, STAT5B-NTD; assay: Intact MS labeling screen, STAT5B-NTD conjugated with photocatalyst Ir-G2-PEG3-COOH (450 nm); conditions: 450 nm 10 min;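 note: 0.14 µL of 100 mM DMSO fragment stock added to the conjugate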
T2 construct: His-SUMO (N, cleaved yes); made in house; host or cells: E. coli BL21 RILP
Experimental: For the photocatalysis experiments, 1.4 µL photocatalyst (in 1.4 mM DMSO solution, 10 eq) was pre-incubated with 1.5 µL coupling reagent (0.75 µL, 5.6 mM EDC (20 eq)+0.75 µL 4.2 mM NHS and 1.5 µL 2.1 mM (15 eq) BOP for 30 min in dark. 30 µL STAT5B-NTD (in 7 µM concentration) was added and incubated further at room temperature overnight or at 37 °C for 1 h in dark. After addition of 0.14 µL PhP (in 100 mM DMSO) the solution was further incubated in dark for 1 h. Irradiation was carried out using 450 nm LED lamp (7.6Vx0A) for 10 min at 4 °C.
(§3) During the analysis, the column temperature was maintained at a constant 60 °C, and a sample volume of 3 µL was injected for each analysis. Data acquisition was conducted in positive ion mode within the m/z 100–2000 (mass-to-charge ratio) range. For the full protocol and spectra of the hits, see Supplementary Note 2.

[4] = test system: myoglobin (Myo); assay: Intact protein MS photoaffinity labeling screen, myoglobin; conditions: intact protein MS after 10 min irradiation
Experimental: as §1

[5] = test system: T2, STAT5B-NTD; assay: Intact MS photoaffinity labeling screen, STAT5B-NTD (365 nm, UHPLC-MS); conditions: for MS labeling percentage, STAT5B: STAT5B-NTD, 365 nm 10 min, no photocatalyst; for STAT5B-NTD: experimental hit status flag (0/1);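 for MS labeling percentage, STAT5B: 0.17 µL of 100 mM DMSO fragment stock added to the protein sample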
Experimental: STAT5B protein in 7 µM concentration in pH 7.4 PBS buffer was pre-incubated with 0.17 µL PhP (in 100 mM DMSO solution) for 1 h at room temperature in dark. Irradiation was carried out at 4 °C for 10 min using 365 nm UV lamp.
as §3

[6] = test system: T3, BRD4-BD1; assay: Intact MS photoaffinity labeling screen, BRD4-BD1 (302 nm, LCMS-TOF); conditions: for MS labeling percentage, BRD4: BRD4-BD1, 302 nm 10 min; for BRD4-BD1: experimental hit status flag (0/1)
T3 construct: screened the PhP library against the first bromodomain of BRD4 (BRD4-BD1); purchased GSK/GenScript
Experimental: as §1, §2

[7] = test system: lysozyme (Lyo); assay: Intact protein MS photoaffinity labeling screen, lysozyme; conditions: intact protein MS after 10 min irradiation
Experimental: as §1

Structure (SMILES) | MS labeling percentage, CA [1] [%] | MS labeling percentage, KRas [2] [%] | KRAS-G12D [2] | MS labeling percentage, STAT5B+photocat [3] [%] | MS labeling percentage, Myo [4] [%] | MS labeling percentage, STAT5B [5] [%] | STAT5B-NTD [5] | MS labeling percentage, BRD4 [6] [%] | BRD4-BD1 [6] | MS labeling percentage, Lyo [7] [%] | experimental hit status KRAS-G12D ([2]; 0/1 flag) | experimental hit status STAT5B-NTD ([5]; 0/1 flag) | experimental hit status BRD4-BD1 ([6]; 0/1 flag)
CCOC(=O)c1c(NC(=O)CCC2(C)N=N2)sc2c1CCN(Cc1ccccc1)C2 [PhP002, N1=NC1(C)CCC(=O)Nc(s2)c(C(=O)OCC)c(c23)CCN(C3)Cc4ccccc4] | 0.2 | 0.2 | 0 | 0 | 0.1 | 0 | 0 | 0.1 | 0 | 0 | – | – | –
Cc1[nH]c2ccc(CNC(=O)CCC3(C)N=N3)cc2c1C [PhP004, Cc([nH]1)c(C)c(c12)cc(cc2)CNC(=O)CCC3(C)N=N3] | 0.1 | 0.7 | 0 | 13 | 0.3 | 2.9 | 0 | – | 0 | 0 | – | – | –
CCOC(=O)[C@H](NC(=O)CCC1(C)N=N1)c1ccccc1 [PhP005, c1ccccc1[C@H](C(=O)OCC)NC(=O)CCC2(C)N=N2] | 0.1 | 0 | 0 | 1.5 | 0.1 | 2 | 0 | 0.1 | 0 | 0 | – | – | –
COc1ccc(-c2csc(CCNC(=O)CCC3(C)N=N3)n2)cc1 [PhP006, COc1ccc(cc1)-c2csc(n2)CCNC(=O)CCC3(C)N=N3] | 0.6 | 1.3 | 0 | 3.3 | 0.3 | 0 | 0 | 2.3 | 0 | 0 | – | – | –
CN1C(=O)COc2ccc(NC(=O)CCC3(C)N=N3)cc21 [PhP007, O1CC(=O)N(C)c(c12)cc(cc2)NC(=O)CCC3(C)N=N3] | 0.2 | 0.2 | 0 | 12.7 | 0.1 | 1 | 0 | 0.4 | 0 | 1.8 | – | – | –
CC1(CCC(=O)NCc2cncc3ccccc23)N=N1 [PhP008, N1=NC1(C)CCC(=O)NCc(cnc2)c(c23)cccc3] | 0.9 | 1 | 0 | 19.6 | 0.6 | 2.9 | 0 | 0.5 | 0 | 0 | – | – | –
Cc1[nH]cnc1CNC(=O)CCC1(C)N=N1 [PhP009, Cc1[nH]cnc1CNC(=O)CCC2(C)N=N2] | 0.6 | 0.7 | 0 | 1 | 0.4 | 1 | 0 | 0.7 | 0 | 0 | – | – | –
CC(Cc1cccc(OCc2ccccc2)c1)NC(=O)CCC1(C)N=N1 (stereo not shown) [PhP013, N1=NC1(C)CCC(=O)NC(C)Cc2cccc(c2)OCc3ccccc3] | 0.4 | – | 0 | 8.8 | 0.3 | 0 | 0 | 40.6 | 0 | 0.3 | – | – | –
COC(=O)C(Cc1c[nH]c2ccccc12)NC(=O)CCC1(C)N=N1 (stereo not shown) [PhP014, N1=NC1(C)CCC(=O)NC(C(=O)OC)Cc(c[nH]2)c(c23)cccc3] | 0.3 | 1.3 | 0 | 7.7 | 0.1 | 2 | 0 | 0.4 | 0 | 0.3 | – | – | –
Cc1nc2cc(NC(=O)CCC3(C)N=N3)ccc2n1-c1ccccc1 [PhP017, c1ccccc1-n(c(n2)C)c(c23)ccc(c3)NC(=O)CCC4(C)N=N4] | 0.6 | 0.9 | 0 | 4.4 | 0.5 | 1 | 0 | 3.4 | 0 | 0.1 | – | – | –

Further lines, with some results ahead:

MS labeling percentage, CA [1] [%] | Structure (SMILES) | MS labeling percentage, KRas [2] [%] | KRAS-G12D [2] | MS labeling percentage, STAT5B+photocat [3] [%] | MS labeling percentage, Myo [4] [%] | MS labeling percentage, STAT5B [5] [%] | STAT5B-NTD [5] | MS labeling percentage, BRD4 [6] [%] | BRD4-BD1 [6] | MS labeling percentage, Lyo [7] [%] | experimental hit status KRAS-G12D ([2]; 0/1 flag) | experimental hit status STAT5B-NTD ([5]; 0/1 flag) | experimental hit status BRD4-BD1 ([6]; 0/1 flag)
0 | CC1(CCC(=O)NCc2ccc(N3CCC(CO)CC3)cc2)N=N1 [PhP010, N1=NC1(C)CCC(=O)NCc2ccc(cc2)N3CCC(CO)CC3] | 0.5 | 0 | 0 | 0 | 1 | 0 | 0.3 | 0 | 0 | – | – | –
0 | CC1(CCC(=O)Nc2nc(-c3c[nH]c(C(N)=O)c3)cs2)N=N1 [PhP011, N1=NC1(C)CCC(=O)Nc2nc(cs2)-c3c[nH]c(c3)C(=O)N] | 0.2 | 0 | 3.4 | 0 | 2 | 0 | 0.2 | 0 | 0 | – | – | –
0.3 | CC1(CCC(=O)NC2CCCC(NC(=O)OC(C)(C)C)C2)N=N1 (stereo not shown) [PhP015, CC(C)(C)OC(=O)NC1CCCC(C1)NC(=O)CCC2(C)N=N2] | 0.6 | 0 | 1.6 | 0.2 | 1 | 0 | 0.3 | 0 | 1.1 | – | – | –
0.6 | CC1(CCC(=O)NC2CCc3nc(C(C)(C)C)cn3C2)N=N1 (stereo not shown) [PhP016, CC(C)(C)c(c1)nc(n12)CCC(C2)NC(=O)CCC3(C)N=N3] | 0.2 | 0 | 8.9 | 0.2 | 0 | 0 | 0.3 | 0 | 0 | – | – | –
0.2 | COC(=O)C(NC(=O)CCC1(C)N=N1)c1ccc(C)cc1 (stereo not shown) [PhP019, c1cc(C)ccc1C(C(=O)OC)NC(=O)CCC2(C)N=N2] | 0 | – | 2.7 | 0.1 | 1 | – | 0.3 | – | 0 | 0 | 0 | 0
